Assay [1] deals with Protein cereblon/Peptidyl-prolyl cis-trans isomerase FKBP1A (Homo sapiens, UniProt P62942+Q96SW2). In words: Protac activity against CRBN/FKBP12 (unknown origin) assessed as FKBP12 degradation by cell based assay.
Assay [2] deals with T1, von Hippel-Lindau disease tumor suppressor/Receptor-interacting serine/threonine-protein kinase 2 (Homo sapiens, UniProt O43353+P40337). Briefly: Protac activity against VHL/RIPK2 in human THP-1 cells assessed as induction of RIPK2 protein degradation at 10 nM relative to control. Type of assay: cell-based.
The target in assay [3] is T1, von Hippel-Lindau disease tumor suppressor/Receptor-interacting serine/threonine-protein kinase 2. Briefly: Protac activity against VHL/RIPK2 in human THP-1 cells assessed as induction of RIPK2 protein degradation. Type of assay: cell-based.
Assay [4] deals with von Hippel-Lindau disease tumor suppressor (Homo sapiens, UniProt P40337). In words: Binding affinity to VHL in human THP-1 cells. Type of assay: cell-based.
Assay [5] concerns the target von Hippel-Lindau disease tumor suppressor/Bromodomain-containing protein 3 (Homo sapiens, UniProt Q15059+P40337). Briefly: Protac activity against VHL/BRD3 (unknown origin) assessed as […] protein degradation by cell based assay.
Assay [6] concerns the target T2, von Hippel-Lindau disease tumor suppressor/Bromodomain-containing protein 2 (Homo sapiens, UniProt P25440+P40337). In words: Protac activity against VHL/BRD2 (unknown origin) assessed as […] protein degradation by cell based assay.
In assay [7] the target is von Hippel-Lindau disease tumor suppressor/Bromodomain-containing protein 4 (Homo sapiens, UniProt O60885+P40337). Briefly: Protac activity against VHL/BRD4 (unknown origin) assessed as induction of BRD4 protein degradation by cell based assay.
Sequence of von Hippel-Lindau disease tumor suppressor/Bromodomain-containing protein 4 (P40337 whole entry, looked up, other chains not shown): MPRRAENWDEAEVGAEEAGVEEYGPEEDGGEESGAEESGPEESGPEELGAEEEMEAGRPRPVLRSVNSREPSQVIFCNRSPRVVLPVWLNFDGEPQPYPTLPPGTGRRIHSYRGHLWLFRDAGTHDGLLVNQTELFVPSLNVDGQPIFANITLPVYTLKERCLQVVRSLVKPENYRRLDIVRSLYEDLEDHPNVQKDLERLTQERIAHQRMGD
In assay [8] the target is T3, von Hippel-Lindau disease tumor suppressor/Mitogen-activated protein kinase 13 (Homo sapiens, UniProt O15264+P40337). In words: Protac activity at E3 ubiquitin ligase/p38delta (unknown origin) assessed as p38delta degradation by cell based assay.
Assay [9] concerns the target T3, von Hippel-Lindau disease tumor suppressor/Mitogen-activated protein kinase 13. Briefly: Protac activity at E3 ubiquitin ligase/p38delta (unknown origin) assessed as p38delta degradation by cell based assay relative to control.
Assay [10] deals with T4, von Hippel-Lindau disease tumor suppressor/Mitogen-activated protein kinase 14 (Homo sapiens, UniProt Q16539+P40337). In words: Protac activity at E3 ubiquitin ligase/p38alpha (unknown origin) assessed as p38alpha degradation by cell based assay.
Assay [11] concerns the target T4, von Hippel-Lindau disease tumor suppressor/Mitogen-activated protein kinase 14. Briefly: Protac activity at E3 ubiquitin ligase/p38alpha (unknown origin) assessed as p38alpha degradation by cell based assay relative to control.
Assay [12] has as its target Protein cereblon/Histone acetyltransferase KAT2B (Homo sapiens, UniProt Q92831+Q96SW2). In words: Protac activity against E3 ubiquitin ligase/PCAF in human THP-1 cells assessed as induction of PCAF protein degradation. Type of assay: cell-based.
The target of assay [13] is Protein cereblon/Histone acetyltransferase KAT2A (Homo sapiens, UniProt Q92830+Q96SW2). In words: Protac activity against E3 ubiquitin ligase/GCN5 in human THP-1 cells assessed as induction of GCN5 protein degradation. Type of assay: cell-based.
Assay [14] has as its target Estrogen receptor/E3 ubiquitin-protein ligase XIAP (Homo sapiens) (UniProt P03372+P98170). Briefly: Protac activity against xiap/ERalpha in human MCF7 cells assessed as reduction in ERalpha protein level at 3 nM relative to control. Type of assay: cell-based. Set-up: scale not given: the % may be the effect or the level left.
Assay [15] has as its target von Hippel-Lindau disease tumor suppressor/Myc proto-oncogene protein (Homo sapiens, UniProt P01106+P40337). In words: Protac activity against VHL/c-Myc (unknown origin) assessed as induction of c-Myc protein degradation by cell based reverse phase protein array analysis.
Assay [16] has as its target T2, von Hippel-Lindau disease tumor suppressor/Bromodomain-containing protein 2. In words: Protac activity against VHL/BRD2 in human 22Rvl cells assessed as induction of BRD2 protein degradation by reverse phase protein array analysis. Type of assay: cell-based.
Assay [17] concerns the target T5, von Hippel-Lindau disease tumor suppressor/Androgen receptor (Homo sapiens, UniProt P10275+P40337). Briefly: Protac activity against VHL/androgen receptor in human VCaP cells assessed as induction of androgen receptor protein degradation by Western blot analysis relative to control. Type of assay: cell-based. (Immunoblotting shows a protein as a band on a membrane.)
Target sequence in this assay (P10275 whole entry, looked up): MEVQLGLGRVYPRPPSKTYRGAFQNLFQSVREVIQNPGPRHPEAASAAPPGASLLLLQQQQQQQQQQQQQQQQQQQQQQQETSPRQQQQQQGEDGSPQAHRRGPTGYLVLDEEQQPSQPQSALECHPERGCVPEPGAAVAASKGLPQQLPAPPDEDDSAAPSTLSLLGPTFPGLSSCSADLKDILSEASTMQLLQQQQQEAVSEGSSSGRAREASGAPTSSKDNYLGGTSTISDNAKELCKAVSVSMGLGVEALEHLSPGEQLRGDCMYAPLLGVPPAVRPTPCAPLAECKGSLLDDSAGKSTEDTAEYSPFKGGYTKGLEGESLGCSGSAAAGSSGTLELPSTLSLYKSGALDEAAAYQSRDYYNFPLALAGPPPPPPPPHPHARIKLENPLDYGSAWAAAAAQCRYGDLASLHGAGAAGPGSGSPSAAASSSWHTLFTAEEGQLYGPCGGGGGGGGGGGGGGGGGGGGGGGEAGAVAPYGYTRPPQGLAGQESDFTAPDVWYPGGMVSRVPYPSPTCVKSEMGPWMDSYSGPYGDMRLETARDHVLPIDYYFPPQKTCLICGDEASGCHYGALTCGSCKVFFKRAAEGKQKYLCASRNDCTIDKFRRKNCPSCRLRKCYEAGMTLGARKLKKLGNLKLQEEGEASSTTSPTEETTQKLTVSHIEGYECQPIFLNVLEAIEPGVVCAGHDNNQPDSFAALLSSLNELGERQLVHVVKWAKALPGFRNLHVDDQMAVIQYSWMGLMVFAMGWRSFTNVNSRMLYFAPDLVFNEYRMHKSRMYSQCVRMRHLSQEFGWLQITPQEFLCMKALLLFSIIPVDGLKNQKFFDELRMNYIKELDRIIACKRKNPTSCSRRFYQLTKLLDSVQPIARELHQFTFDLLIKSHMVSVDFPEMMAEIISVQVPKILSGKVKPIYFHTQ
Target sequence in this assay (P40337 whole entry, looked up): as the sequence (P40337 whole entry, looked up, other chains not shown) above

Assay [18] has as its target T5, von Hippel-Lindau disease tumor suppressor/Androgen receptor. Briefly: Protac activity against VHL/androgen receptor in human VCaP cells assessed as induction of androgen receptor protein degradation by Western blot analysis. Type of assay: cell-based.
Target sequence in this assay (P10275 whole entry): as the sequence (P10275 whole entry, looked up) above
Target sequence in this assay (P40337 whole entry): as the sequence (P40337 whole entry, looked up, other chains not shown) above
The target in assay [19] is Protein cereblon/Cyclin-dependent kinase 9 (Homo sapiens, UniProt P50750+Q96SW2). Briefly: Protac activity against E3 ubiquitin ligase/CDK9 in human MCF7 cells assessed as induction of CDK9 protein degradation. Type of assay: cell-based.
Sequence of Protein cereblon/Cyclin-dependent kinase 9 (P50750 whole entry): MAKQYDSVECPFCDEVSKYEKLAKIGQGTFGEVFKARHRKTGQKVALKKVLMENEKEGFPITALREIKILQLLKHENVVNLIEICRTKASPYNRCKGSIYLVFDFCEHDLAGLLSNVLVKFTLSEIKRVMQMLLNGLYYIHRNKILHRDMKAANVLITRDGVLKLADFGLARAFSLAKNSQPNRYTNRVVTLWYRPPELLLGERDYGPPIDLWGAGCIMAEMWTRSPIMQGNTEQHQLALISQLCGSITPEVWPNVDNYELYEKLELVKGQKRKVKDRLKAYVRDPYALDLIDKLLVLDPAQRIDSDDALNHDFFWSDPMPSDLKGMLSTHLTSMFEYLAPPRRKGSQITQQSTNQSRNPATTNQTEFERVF
Sequence of Protein cereblon/Cyclin-dependent kinase 9 (Q96SW2 whole entry): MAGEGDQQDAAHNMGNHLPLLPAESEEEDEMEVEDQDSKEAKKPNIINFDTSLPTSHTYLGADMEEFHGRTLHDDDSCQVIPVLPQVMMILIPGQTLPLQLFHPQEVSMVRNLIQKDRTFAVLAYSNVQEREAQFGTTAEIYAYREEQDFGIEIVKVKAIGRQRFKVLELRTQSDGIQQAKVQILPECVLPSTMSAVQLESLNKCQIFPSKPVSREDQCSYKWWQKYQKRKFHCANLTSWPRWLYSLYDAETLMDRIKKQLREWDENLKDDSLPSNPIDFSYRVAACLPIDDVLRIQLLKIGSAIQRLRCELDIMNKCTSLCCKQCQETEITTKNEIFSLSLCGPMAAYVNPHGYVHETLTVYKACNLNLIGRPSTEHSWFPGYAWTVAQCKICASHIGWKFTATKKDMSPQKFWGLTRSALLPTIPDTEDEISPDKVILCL
In assay [20] the target is Protein cereblon/Tyrosine-protein kinase BTK (Homo sapiens, UniProt Q06187+Q96SW2). In words: Protac activity at E3 ubiquitin ligase/BTK in human NAMALWA cells assessed as BTK degradation. Type of assay: cell-based.

pIC50: −log10 of the molar value.

T2 sequence (P25440 whole entry): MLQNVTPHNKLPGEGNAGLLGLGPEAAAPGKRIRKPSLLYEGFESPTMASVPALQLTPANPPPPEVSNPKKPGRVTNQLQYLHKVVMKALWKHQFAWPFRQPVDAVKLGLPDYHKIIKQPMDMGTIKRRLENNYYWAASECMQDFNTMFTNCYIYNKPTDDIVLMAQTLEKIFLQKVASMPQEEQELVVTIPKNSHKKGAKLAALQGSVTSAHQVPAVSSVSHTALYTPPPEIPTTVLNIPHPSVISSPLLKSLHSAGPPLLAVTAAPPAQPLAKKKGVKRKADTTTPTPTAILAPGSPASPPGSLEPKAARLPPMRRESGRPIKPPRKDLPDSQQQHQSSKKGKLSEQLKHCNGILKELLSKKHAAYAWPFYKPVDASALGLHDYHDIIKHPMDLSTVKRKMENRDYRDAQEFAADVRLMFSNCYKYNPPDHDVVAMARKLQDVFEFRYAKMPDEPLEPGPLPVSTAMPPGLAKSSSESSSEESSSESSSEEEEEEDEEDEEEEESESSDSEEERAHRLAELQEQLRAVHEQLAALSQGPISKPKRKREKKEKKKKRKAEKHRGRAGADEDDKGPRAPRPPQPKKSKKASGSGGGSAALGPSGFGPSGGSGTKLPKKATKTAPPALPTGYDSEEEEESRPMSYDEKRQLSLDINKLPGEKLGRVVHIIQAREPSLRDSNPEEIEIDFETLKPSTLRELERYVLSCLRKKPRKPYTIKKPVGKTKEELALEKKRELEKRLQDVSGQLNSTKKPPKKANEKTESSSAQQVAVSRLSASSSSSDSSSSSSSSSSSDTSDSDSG
T2 sequence (P40337 whole entry): as the sequence (P40337 whole entry, looked up, other chains not shown) above
Sequence of Protein cereblon/Peptidyl-prolyl cis-trans isomerase FKBP1A (P62942 whole entry): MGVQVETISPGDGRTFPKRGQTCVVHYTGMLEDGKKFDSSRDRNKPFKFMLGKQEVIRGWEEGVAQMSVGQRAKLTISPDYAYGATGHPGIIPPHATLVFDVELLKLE
Sequence of Protein cereblon/Peptidyl-prolyl cis-trans isomerase FKBP1A (Q96SW2 whole entry): as the sequence (Q96SW2 whole entry) above

Consider `CCC(C)(C)C(=O)C(=O)N1CCCCC1C(=O)O[C@H](CCc1ccc(OC)c(OC)c1)c1cccc(NC(=O)CCC(=O)NCCCCNC(=O)COc2cccc3c2C(=O)N(C2CCC(=O)NC2=O)C3=O)c1` (stereo not given in full), for which the DC50 in assay [1] came out at 10 nM.

On to `Cc1ncsc1-c1ccc(CNC(=O)[C@@H]2C[C@@H](O)CN2C(=O)[C@@H](NC(=O)COCCOCCOCCOCCOc2cc3nccc(Nc4ccc5scnc5c4)c3cc2S(=O)(=O)C(C)(C)C)C(C)(C)C)cc1`, for which the Emax in [2] is greater than 95%. Also, the half-maximal degradation concentration (DC50) in assay [3] was 1.4 nM. The molecule further showed a pIC50 in assay [4] of 6.18.

`Cc1ncsc1-c1ccc(CNC(=O)[C@@H]2[C@@H](F)[C@@H](O)CN2C(=O)[C@@H](NC(=O)COCCOCCOCCNC(=O)C[C@@H]2N=C(c3ccc(Cl)cc3)c3c(sc(C)c3C)-n3c(C)nnc32)C(C)(C)C)cc1`: the DC50 in assay [5] was 10 nM; in [6] it was 10 nM; in [7], less than 3 nM.

As for `COc1cc2c(Oc3ccc(NC(=O)C4(C(=O)Nc5ccc(F)cc5)CC4)cc3F)ccnc2cc1OCCOCCOCCOc1cc(-c2scnc2C)ccc1CNC(=O)[C@@H]1C[C@@H](O)CN1C(=O)[C@H](C(C)C)N1Cc2ccccc2C1=O`, the DC50 in assay [8] worked out at 46.2 nM. Moreover, the maximum response (Emax) in assay [9] turned out to be 99.4%.

As to `COc1cc2c(Oc3ccc(NC(=O)C4(C(=O)Nc5ccc(F)cc5)CC4)cc3F)ccnc2cc1OCCCCOCCCCOCC(=O)N[C@H](C(=O)N1C[C@H](O)C[C@H]1C(=O)NCc1ccc(-c2scnc2C)cc1)C(C)(C)C`, the DC50 in assay [10] was 7.16 nM. Further, the Emax in [11] was determined as 97.4%.

Turning to `CN1C[C@H](Nc2cnn(C)c(=O)c2Br)C[C@H](c2ccc(C(=O)N(C)CCCN(C)c3ccc(CCCOc4cccc5c4C(=O)N(C4CCC(=O)NC4=O)C5=O)cc3)cc2)C1` (mixture of isomers), the DC50 was 1.5 nM in [12] and 3 nM in assay [13].

With `CC/C(=C(\c1ccc(O)cc1)c1ccc(OCCN(C)C(=O)COCCOCCOCCOc2cccc(C(=O)c3csc([C@@H]4CCCN4C(=O)[C@@H](NC(=O)[C@H](C)NC)C4CCCCC4)n3)c2)cc1)c1ccccc1`, the Activity in assay [14] came out at 50%.

Take `Cc1ncsc1-c1ccc([C@H](C)NC(=O)[C@@H]2C[C@@H](O)CN2C(=O)[C@@H](NC(=O)COCCCOCCNC(=O)C[C@@H]2N=C(c3ccc(Cl)cc3)c3c(sc(C)c3C)-n3c(C)nnc32)C(C)(C)C)cc1`: the DC50 is less than 1 nM in assay [15] and less than 5 nM in [16].

Turning to `Cc1ncsc1-c1ccc(CNC(=O)[C@@H]2C[C@@H](O)CN2C(=O)[C@@H](NC(=O)COCCCCOc2ccc(-c3ccc(N4C(=S)N(c5ccc(C#N)c(C(F)(F)F)c5)C(=O)C4(C)C)cc3)cc2)C(C)(C)C)cc1`, in [17], the maximal effect (Emax) is greater than 95%. Also, in [18], the DC50 was found to be 5 nM.

For `O=C1CCC(N2C(=O)c3cccc(NC(=O)CCCCCCCn4cc(COc5c(O)cc(O)c6c(=O)cc(-c7ccccc7)oc56)nn4)c3C2=O)C(=O)N1` (stereo not given), the pIC50 in assay [19] was 6.28.

In the case of `Nc1ncnc2c1c(-c1ccc(Oc3ccccc3)cc1)nn2C1CCN(CCOCCOCC(=O)Nc2ccc3c(c2)C(=O)N(C2CCC(=O)NC2=O)C3=O)CC1` (stereo not given), the 50% degradation concentration (DC50) in assay [20] was 9.1 nM.

Broadly, the DC50 is the midpoint of the concentration-degradation curve. The Emax is the greatest response seen or fitted, relative to the assay's reference. What is called pIC50 is the negative decadic logarithm of the IC50, by convention in mol/L.
